Measurements reported in patent publication US10552557B2, “Freshening compositions and devices comprising same” (The Procter & Gamble Company, priority 2014, dated 2020).

Assay: Blocker Index (BI), expert graders, isovaleric acid malodorous swatch treated with test material
Text: Blocker materials suitable for use in consumer products of the present invention are chosen for their ability to decrease malodor, while not interfering with perception of a fragrance. Material selection is done by assigning two indices to a test sample material from two reference scales in order to rank odor strengths. The two reference scales are the Fragrance Fidelity Index (FFI) scale and the Blocker Index (BI) scale. The FFI ranks the ability of the test sample material to impart a perceivable odor which could cause interference when combined with another fragrance and the BI ranks the ability of the test sample material to reduce malodor perception. The two methods for assigning the indices to a test sample on the FFI and the BI reference scales are given below.
The first step in the method for assigning a BI to a test sample material on the BI reference scale is to create the BI reference swatches. […] Fabric swatches for this test are white knit polycotton (4 inch×4 inch) swatches from EMC ordered as PC 50/50. The supplier is instructed to strip the swatches first, stripping involves washing twice with a fragrance-free detergent and rinsing three times.
The BI scale contains one clean swatch with no malodor applied. […] These solutions are pipetted to the middle of the swatches. […] After drying for 30 minutes in a vented hood, the swatches are wrapped in aluminum foil to prevent odor contamination to the treated swatch. A clean untreated swatch is also included as the lowest anchor point of reference for malodor strength on the BI scale. The BI reference scale swatches should be used within 0.5 to 12 hours and discarded after 12 hours. The swatches are used as scale anchor points when graders evaluate a test sample(s) and are assigned a Blocker Index (BI) as show in Table 12.
The perfumer/expert grader is asked to rank order swatches according to a scale between 0 and 3.
The reference swatches represent the 0, 1, 2, and 3 BIs on the BI reference scale, Table 12. The expert grader should familiarizes him/herself with the strength of the odor on the BI reference swatches by sniffing each one starting at 0 (the lowest odor strength) and ending at 3 (the highest odor strength). This should be done prior to evaluating the swatch treated with the test material.
To evaluate the BI, the test material is applied to a malodorous swatch to determine how well the test material blocks the malodor. […] After drying the malodorous swatch a known concentration of test material solution, between 1 ppm and 100 ppm is pipetted onto the malodorous swatch. […] It is sometimes necessary to evaluate several levels of the test material between about 1 and about 100 ppm to determine the BI.
At least two perfumers/expert graders are used to assign the BI to the test sample. […] The test sample swatch is assigned a BI at or between numbers on the BI in table.

[1] = Conc 10 ppm test material on isovaleric acid malodorous swatch
[2] = Conc 50 ppm test material on isovaleric acid malodorous swatch

SMILES | BI of reference swatch, Ave (2 μL 0.08% solution, all graders (Table 10)) | BI [1] | BI [2]
CC(C)CC(=O)O [isovaleric acid, reference compound] | 1.0 |  | 
CC1(C)CCc2ccc(CCC=O)cc21 |  | 1.5 | 2.7
CC1CCC2(C(C)C)CC(C)OC2C1 (stereo not shown) |  | 2.0 | 2.2
CCC(=O)OC1CC2C3C=CCC3C1C2(C)C (stereo not shown) [8,8-dimethyl-3a,4,5,6,7,7a-hexahydro-1H-4,7-methanoinden-6-yl propionate] |  | 1.5 | 2.2
